Experiment: xn = mol fraction of the nth substance listed
Conditions: 101.3 kPa

CC[n+]1ccn(C)c1C.F[B-](F)(F)F + CO
viscosity [mPa·s]
Conditions	293.15 K	298.15 K	303.15 K	308.15 K	313.15 K	318.15 K	323.15 K	328.15 K	333.15 K
x1 = 0.0165	0.863	0.803	0.75	0.701	0.658	0.619	0.583	0.55	0.522
x1 = 0.0364	0.999	0.925	–	0.801	0.752	0.706	–	0.626	0.59
x1 = 0.0608	1.27	1.177	1.096	–	0.953	0.893	0.839	0.79	0.749
x1 = 0.0915	1.45	–	1.26	–	1.086	1.012	–	–	0.816
x1 = 0.1313	–	1.77	–	–	1.4	1.3	–	–	–
x1 = 0.1848	2.75	2.5	2.28	2.09	–	1.77	1.63	1.52	–
x1 = 0.2607	4.43	–	3.6	3.28	2.99	2.74	2.54	2.34	2.17
x1 = 0.3768	9.29	8.18	7.17	6.85	6.15	–	5.01	–	4.13

CO + CC[n+]1ccn(C)c1C.F[B-](F)(F)F
x2 = 0
Conditions	viscosity [mPa·s]
293.15 K	0.57
298.15 K	0.532
303.15 K	0.498
313.15 K	0.439
318.15 K	0.414
323.15 K	0.39
328.15 K	0.37
333.15 K	0.351
